Structures can show the parent of a compound that is named as a salt. Where two headings read alike, the source gives them in different places.
What was measured:
[1] = tested on: AD-NNOP-SPOR neural organoids; test: CGS-21680 effect on gene expression in AD-NNOP-SPOR neural organoids (Ampliseq transcriptomics); format: cell-based, human
Description: (§1) Neural Organoids derived from induced pluripotent stem cells derived from adult skin cells of AD, ADRD or MED patients were grown in vitro for 4 weeks as previous described in U.S. Pat. No. 11,435,890, incorporated by reference in its entirety herein. Transcriptomic data from these neural organoids were obtained. Differences in expression of 20,814 genes expressed in the human genome were determined between these neural organoids and those from neural organoids from a normal individual human (an individual not having/diagnosed with AD, ADRD, or MED). Detailed data analysis using Gene Card and Pubmed data bases were performed.
(§2) Human induced pluripotent stem cell-derived neural organoids were generated according to the following protocol, as set forth in U.S. Pat. No. 11,435,890, incorporated by reference in its entirety herein. Briefly, irradiated murine embryonic fibroblasts (MEF) were plated on a gelatin coated substrate in MEF media (Dulbecco's Modified Eagle Medium (DMEM) supplemented with 10% Fetal Bovine Serum, 100 units/ml penicillin, 100 microgram/ml streptomycin, and 0.25 microgram/ml Fungizone) at a density of 2×10^5 cells per well. The seeded plate was incubated at 37° C. overnight.
In Table 1, the effect of A2A receptor agonist to reverse the aberrant expression of the biomarkers in AD disease was assessed. […] Log2 fold change with a positive value indicates a […] in expression of an AD-NNOP gene when compared to Normal-NNOP and a negative number indicates an increase in gene expression.

[2] = cited from earlier work
[3] = tested on: AD-NNOP-APP neural organoids; test: PF-3845 effect on gene expression in AD-NNOP-APP neural organoids (Ampliseq transcriptomics); format: cell-based, human
Description: as §1, with “performed. […] These genes comprise a suite of biomarkers for Alzheimer's disease.” for “performed.”
as §2
It is known that FAAH inhibitor PF-3845 will raise endogenous levels of endocannabinoid anandamide receptor agonist anandamide. Consequently, PF-3845 treatment can increase endocannabinoid anandamide receptor activity despite dementia-associated downregulation. […] AD-NNOP-APP neural organoids were incubated with vehicle (0.1% DMSO; control) or PF-3845 dissolved in DMSO at 10 µM for 4 days and harvested for RNA extraction and gene expression analysis by Ampliseq™ (Thermofisher). Log2 fold change with a positive value indicates a […] in expression of an AD-NNOP gene when compared to Normal-NNOP and with a negative number an increase in gene expression. […] The expression of these genes were known to be increased in AD-NNOP-APP compared to normal (data not shown). Thus, PF-3845 or FAAH inhibitor was effective in reverting the biomarkers of AD to normalcy.

adenosine A2A receptor = conditions: Zochi et al., 1996, cited from earlier work
[4] = AD-NNOP-SPOR, CGS-21680 1 μM 4 days vs vehicle
[5] = AD-NNOP-APP >12 weeks in culture, PF-3845 10 µM 4 days vs vehicle (0.1% DMSO), positive = decrease in expression

Compound: CCNC(=O)[C@H]1O[C@@H](n2cnc3c(N)nc(NCCc4ccc(CCC(=O)O)cc4)nc32)[C@H](O)[C@@H]1O [CGS-21680, 2-p-(2-Carboxyethyl) phenethylamino-5′-N-ethylcarboxamidoadenosine hydrochloride hydrate]
- effect on TBX3 expression ([1]; AD-NNOP SPOR, compared to control treatment): decreased TBX3 expression
- effect on expression of abnormal AD genes [1, 4]: invert the expression of the abnormal genes in AD and revert them back to normalcy
- number of differentially expressed genes vs control group [1, 4]: 2023 genes
- solubility in 45% (w/v) aq 2-hydroxypropyl-β-cyclodextrin ([2]; 45% (w/v) aq 2-hydroxypropyl-β-cyclodextrin): ≤ 20 mg/mL
- solubility in DMSO [2]: up to 3.4 mg/mL

Compound: O=C(Nc1cccnc1)N1CCC(Cc2cccc(Oc3ccc(C(F)(F)F)cn3)c2)CC1 [PF-3845]
- effect on expression of measured AD biomarker genes ([3]; AD-NNOP APP, PF-3845 compared to control treatment): expression of the measured genes were decreased
- ADM log2 Fold Change [3, 5]: 2.14
- BGN log2 Fold Change [3, 5]: 2.50
- CD36 log2 Fold Change [3, 5]: 2.86
- MAP3K19 log2 Fold Change [3, 5]: 2.56
- SLC16A3 log2 Fold Change [3, 5]: 2.05
- number of differentially expressed genes vs control group ([3]; AD-NNOP-APP, PF-3845 10 µM 4 days vs vehicle): 2111 genes

Compound: CCNC(=O)[C@H]1O[C@@H](n2cnc3c(N)nc(C#CC[C@H]4CC[C@H](C(=O)OC)CC4)nc32)[C@H](O)[C@@H]1O [apadenoson, methyl (1R,4r)-4-(3-(6-amino-9-((2R,3R,4S,5S)-5-(ethylcarbamoyl)-3,4-dihydroxytetrahydrofuran-2-yl)-9H-purin-2-yl)prop-2-yn-1-yl)cyclohexane-1-carboxylate]
- solubility in DMSO ([2]; MedKoo Biosciences): Soluble in DMSO
